Data reported in the NIST ThermoML archive (doi:10.1016/j.tca.2005.12.008).
Numbers after ± are expanded uncertainties.

Test: molar heat capacity at constant pressure
Conditions: 101.33 kPa, Crystal, Small (less than 1 g) adiabatic calorimetry

O.O=C([O-])[C@H](O)[C@@H](O)CO.O=C([O-])[C@H](O)[C@@H](O)CO.[Cu+2] [copper(II) (2R,3S)-2,3,4-trihydroxybutanoate hydrate]
Conditions | molar heat capacity at constant pressure [J/K/mol]
77.95 K | 157.12 ± 1.1
78.77 K | 158.43 ± 1.1
79.58 K | 159.75 ± 1.1
81.05 K | 161.91 ± 1.2
83.23 K | 165.7 ± 1.2
85.3 K | 168.87 ± 1.2
87.33 K | 172.05 ± 1.2
89.3 K | 175.55 ± 1.3
91.24 K | 178.89 ± 1.2
93.14 K | 182.28 ± 1.3
95.01 K | 185.29 ± 1.3
96.85 K | 188.44 ± 1.3
98.65 K | 191.21 ± 1.3
100.44 K | 194.62 ± 1.4
102.18 K | 197.16 ± 1.4
103.92 K | 200.13 ± 1.4
105.63 K | 203.01 ± 1.4
107.32 K | 205.34 ± 1.4
109 K | 207.51 ± 1.4
110.66 K | 210.17 ± 1.5
112.29 K | 213.09 ± 1.5
113.91 K | 215.33 ± 1.5
115.53 K | 217.99 ± 1.5
117.12 K | 220.64 ± 1.5
118.7 K | 222.67 ± 1.5
120.28 K | 224.56 ± 1.6
121.83 K | 227.52 ± 1.6
123.37 K | 230.1 ± 1.6
124.9 K | 231.86 ± 1.6
127.77 K | 236.46 ± 1.6
132.03 K | 242.38 ± 1.7
136.29 K | 248.21 ± 1.7
140.39 K | 253.18 ± 1.7
144.49 K | 258.87 ± 1.8
148.5 K | 263.42 ± 1.8
152.44 K | 269.25 ± 1.9
156.37 K | 273.65 ± 1.9
160.22 K | 278.91 ± 1.9
163.99 K | 283.6 ± 1.9
167.76 K | 289.57 ± 2
171.53 K | 294.4 ± 2
175.22 K | 298.81 ± 2
178.91 K | 303.93 ± 2.1
182.51 K | 308.62 ± 2.1
186.04 K | 314.59 ± 2.1
189.63 K | 319.74 ± 2.2
193.17 K | 324.58 ± 2.2
196.61 K | 329.37 ± 2.2
200.05 K | 333.92 ± 2.3
203.48 K | 338.93 ± 2.3
206.76 K | 344.03 ± 2.4
210.14 K | 349.72 ± 2.4
213.41 K | 353.68 ± 2.4
216.7 K | 358.82 ± 2.4
219.87 K | 365.27 ± 2.5
223.07 K | 370.33 ± 2.5
226.27 K | 374.9 ± 2.5
229.39 K | 380.28 ± 2.6
232.43 K | 385.56 ± 2.6
235.45 K | 390.94 ± 2.7
238.48 K | 396.17 ± 2.7
241.43 K | 401.58 ± 2.7
244.3 K | 406.42 ± 2.8
247.25 K | 410.96 ± 2.8
250.17 K | 415.09 ± 2.8
253.07 K | 420.05 ± 2.9
255.94 K | 424.32 ± 2.9
258.81 K | 430.57 ± 2.9
261.59 K | 435.83 ± 3
264.38 K | 439.95 ± 3
267.25 K | 446.35 ± 3
269.95 K | 449.9 ± 3
272.74 K | 455.45 ± 3.1
275.44 K | 460.56 ± 3.1
278.15 K | 465.27 ± 3.1
280.87 K | 471.63 ± 3.2
283.46 K | 476.96 ± 3.2
286.11 K | 481.85 ± 3.3
288.64 K | 486.29 ± 3.3
291.26 K | 492.12 ± 3.3
293.8 K | 496.38 ± 3.4
296.18 K | 501.64 ± 3.4
298.72 K | 506.76 ± 3.4
301.34 K | 511.59 ± 3.5
304.73 K | 517.6 ± 3.5
308.01 K | 525.08 ± 3.5
311.68 K | 533.37 ± 3.6
315.35 K | 539.96 ± 3.6
318.3 K | 546.62 ± 3.7
321.22 K | 553.21 ± 3.7
324.17 K | 560.99 ± 3.8
327.09 K | 567.58 ± 3.8
330.19 K | 573.7 ± 3.9
333.38 K | 581.34 ± 3.9
336.12 K | 586.57 ± 4
338.87 K | 593.18 ± 4
341.62 K | 602.58 ± 4.1
344.26 K | 609.21 ± 4.1
346.73 K | 617.4 ± 4.2
349.06 K | 625.08 ± 4.2
351.28 K | 633.61 ± 4.3
353.44 K | 639.41 ± 4.3
355.51 K | 652.09 ± 4.4
